Measurements as given in patent publication US9796713B2, “Tricyclic compounds as alpha-7 nicotinic acetylcholine receptor ligands” (BRISTOL-MYERS SQUIBB COMPANY, priority 2014, dated 2017).

Molecular target: T1, α-7 nicotinic ACh receptor ion channel (Rattus norvegicus, UniProt Q05941)
T1 construct: expressed in transfected cells
Assay: FLIPR Ca2+-sensitive fluorescence assay of α7 nicotinic acetylcholine receptor channel function (agonist activity) in HEK 293 cells
Format: cell-based
Details: Ca2+ flux, HEK-293 cells expressing the channel
Experimental: I) α7 Nicotinic Acetycholine Receptor Binding. Membranes were prepared for binding using HEK293 cells stably expressing the rat α7 nicotinic acetycholine receptor (rat α7 nAChR). Cells were homogenized at 4° C. in hypotonic lysis buffer consisting of 10 mM Tris (pH 7.4), 5 mM EDTA and protease inhibitors and centrifuged at 32000×g for 20 minutes. The pellet was washed once in membrane wash buffer consisting of 50 mM Tris (pH 7.4), 1 mM EDTA and protease inhibitors and centrifuged at 32000×g for 20 minutes. This pellet was then resuspended in assay buffer consisting 50 mM KH2PO4 (pH 7.4 at 25° C.), 1 mM EDTA, 0.005% Triton-X 100 and 0.1% (v/v) Sigma Protease Inhibitor Cocktail. Aliquots were then frozen in dry ice/ethanol and kept at −80° C. until the day of the assay. II) A Ca^2+-Sensitive, Fluorescence-Based Assay α-7 for Nicotinic Acetylcholine Receptor Channel Function in Mammalian Cells (“FLIPR”). Summary: Lead compounds are evaluated for agonist activity at α-7, α3β4, α4αβ2, and α1β1δ1ε sub-types of nicotinic ACh receptor ion channels expressed in mammalian HEK 293 cells. Agonist potency and efficacy values are determined from kinetic fluorescence Ca^2+ influx measurements made using a 384 well FLIPR (Fluorescence Image Plate Reader). The utility of fluorescent indicators for measuring changes in intracellular divalent cation concentrations, particularly Ca^2+, for drug discovery endeavors is well documented (Rudiger, R., et al., Nature Reviews, 2003, 4:579-586; Gonzalez J. E., et al., Receptors and Channels, 2002, 8:283-295). In this assay, channel expressing HEK cell lines seeded in 384 well assay plates are loaded with a membrane permeant fluorescent Ca^2+ indicator dye, whose 510 nm green emission signal increases in response to elevation of intracellular Ca^2+ concentration. The basal fluorescence from the cells is monitored in real time, followed by the acute addition of test compounds. If the compound is an agonist at any of the non-selective cation channels, the latter open and allow the movement of extracellular Ca^2+ ions into the cell cytoplasm, where they bind to the Ca^2+ indicator dye, and produce an increase in fluorescence output signal, which is detected by a cooled CCD imaging camera.
Materials and Methods: Reagents: The acetomethoxy (AM) ester of the Ca^2+ indicator dye Fluo-4 was obtained from InVitrogen, (Carlsbad, Calif.). Acetylcholine and all buffer constituents were purchased from Sigma Chemical Company, St. Louis, Mo. G418 and Minimal Essential Medium were purchased from InVitrogen Life Technologies, Carlsbad, Calif. Fetal bovine serum was purchased from (InVitrogen, Carlsbad, Calif.).
Cell Culture: HEK-293 cells were grown in Minimal Essential Medium containing 10% (v/v) fetal bovine serum at 37° C. in a 5% CO2 incubator. HEK-293 cells stably expressing the ion channels were grown in the same medium with the addition of 500 μg/ml G418.
Ca^2+ flux assays of Ca^2+ channels expressed in HEK-293 cells: HEK-293 cells expressing the ion channels of interest were plated in 384 well, black-walled, clear-bottomed, poly-D-lysine coated plates at a density of ˜20,000 cells/well in 20 μl of Minimal Essential Medium containing 10% (v/v) fetal bovine serum and incubated for 2 days at 29° C. in a 5% CO2 incubator. Prior to assay, cells were loaded with the Fluo-4 AM ester. Cell loading was accomplished by removing the culture medium and replacing it with 30 μl/well of the AM ester of the dye (5 μM) mixed with Hanks Balanced Salt Solution (#14175-095) containing 20 mM HEPES, 2.5 mM probenecid, 0.5 mM CaCl2, 1 mM MgCl2 and 10 μM atropine. Dye loading was allowed to proceed for 90 minutes at room temperature at which time the dye loading solution was removed and replaced with 40 μl/well of Hanks buffer. Cells loaded with dye were loaded onto a FLIPR384 (Molecular Devices, Sunnyvale, Calif.). Fluo-4 dye was excited using the 488 nm line of an argon laser. Emission was filtered using a 540+/−30 nm bandpass filter. […]

T1 sequence (Q05941 23-502): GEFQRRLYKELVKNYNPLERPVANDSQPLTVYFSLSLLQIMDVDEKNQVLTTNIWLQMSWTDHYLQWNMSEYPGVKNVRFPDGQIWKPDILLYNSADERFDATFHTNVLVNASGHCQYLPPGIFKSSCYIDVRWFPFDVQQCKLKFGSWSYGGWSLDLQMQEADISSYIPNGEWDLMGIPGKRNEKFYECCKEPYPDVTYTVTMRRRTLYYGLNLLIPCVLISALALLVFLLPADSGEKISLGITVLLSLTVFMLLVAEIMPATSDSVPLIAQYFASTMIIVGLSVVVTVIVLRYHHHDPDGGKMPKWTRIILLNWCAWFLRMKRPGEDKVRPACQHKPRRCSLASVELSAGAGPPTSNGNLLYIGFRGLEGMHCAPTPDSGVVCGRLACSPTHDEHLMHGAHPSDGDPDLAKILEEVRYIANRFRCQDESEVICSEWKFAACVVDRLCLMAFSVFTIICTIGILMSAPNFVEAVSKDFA

SMILES	EC50 (Table 3) [µM]	EC50 (Table 1) [µM]	further results
O=C(c1noc2ccccc12)N1[C@@H]2C[C@H]3CC[N@@](C2)C[C@H]31 [Example 29, benzo[d]isoxazol-3-yl((2R,3aR,6S,7aS)-hexahydro-2,6-methanopyrrolo[2,3-c]pyridin-1(2H)-yl)methanone]	3.1	–	–
COc1cccc2[nH]nc(C(=O)N3C4CC5CCN(C4)CC53)c12 (centres unmarked) [Example 15, (4-methoxy-1H-indazol-3-yl)(hexahydro-2,6-methanopyrrolo[2,3-c]pyridin-1(2H)-yl)methanone]	–	> 50	–
O=C(c1n[nH]c2cc(Cl)ccc12)N1C2CC3CCN(C2)CC31 (centres unmarked) [Example 7, (6-chloro-1H-indazol-3-yl)(hexahydro-2,6-methanopyrrolo[2,3-c]pyridin-1(2H)-yl)methanone]	–	0.057	–
O=C(c1n[nH]c2ncccc12)N1[C@H]2C[C@@H]3CC[N@](C2)C[C@@H]31 [Example 24, ((2S,3aS,6R,7aR)-hexahydro-2,6-methanopyrrolo[2,3-c]pyridin-1(2H)-yl)(1H-pyrazolo[3,4-b]pyridin-3-yl)methanone]	–	–	EC50 (Table 2): 1.3 µM
O=C(c1n[nH]c2ccccc12)N1C2CC3CCN(C2)CC31 (centres unmarked) [Example 1, (hexahydro-2,6-methanopyrrolo[2,3-c]pyridin-1(2H)-yl)(1H-indazol-3-yl)methanone]	–	0.073	–
O=C(c1n[nH]c2ccc(Cl)cc12)N1C2CC3CCN(C2)CC31 (centres unmarked) [Example 2, (5-chloro-1H-indazol-3-yl)(hexahydro-2,6-methanopyrrolo[2,3-c]pyridin-1(2H)-yl)methanone]	–	0.59	–
Cc1ccc2c(C(=O)N3[C@H]4C[C@@H]5CC[N@](C4)C[C@@H]53)n[nH]c2c1 [Example 23, (6-methyl-1H-indazol-3-yl)((2S,3aS,6R,7aR)-hexahydro-2,6-methanopyrrolo[2,3-c]pyridin-1(2H)-yl)methanone]	–	–	EC50 (Table 2): 0.039 µM
O=C(c1cc(-c2ccccc2)[nH]n1)N1[C@H]2C[C@@H]3CC[N@](C2)C[C@@H]31 [Example 19, ((2S,3aS,6R,7aR)-hexahydro-2,6-methanopyrrolo[2,3-c]pyridin-1(2H)-yl)(5-phenyl-1H-pyrazol-3-yl)methanone]	–	–	EC50 (Table 2): > 100 µM
O=C(c1n[nH]c2ccc(Br)cc12)N1C2CC3CCN(C2)CC31 (centres unmarked) [Example 3, (5-bromo-1H-indazol-3-yl)(hexahydro-2,6-methanopyrrolo[2,3-c]pyridin-1(2H)-yl)methanone]	–	0.7	–
O=C(c1n[nH]c2c(Cl)cccc12)N1[C@H]2C[C@@H]3CC[N@](C2)C[C@@H]31 [Example 22, (7-Chloro-1H-indazol-3-yl)((2S,3aS,6R,7aR)-hexahydro-2,6-methanopyrrolo[2,3-c]pyridin-1(2H)-yl)methanone]	–	–	EC50 (Table 2): 3.6 µM
O=C(c1n[nH]c2cc(Cl)ccc12)N1[C@H]2C[C@@H]3CC[N@](C2)C[C@@H]31 [Example 17, (6-chloro-1H-indazol-3-yl)((2S,3aS,6R,7aR)-hexahydro-2,6-methanopyrrolo[2,3-c]pyridin-1(2H)-yl)methanone]	–	–	EC50 (Table 2): 0.03 µM
O=C(c1nsc2ccccc12)N1C2CC3CCN(C2)CC31 (centres unmarked) [Example 11, Benzo[d]isothiazol-3-yl(hexahydro-2,6-methanopyrrolo[2,3-c]pyridin-1(2H)-yl)methanone]	–	7.1	–
O=C(c1n[nH]c2cc(Cl)ccc12)N1[C@@H]2C[C@H]3CC[N@@](C2)C[C@H]31 [Example 16, (6-chloro-1H-indazol-3-yl)((2R,3aR,6S,7aS)-hexahydro-2,6-methanopyrrolo[2,3-c]pyridin-1(2H)-yl)methanone]	0.086	–	–
Cn1nc(C(=O)N2C3CC4CCN(C3)CC42)c2ccccc21 (centres unmarked) [Example 8, (Hexahydro-2,6-methanopyrrolo[2,3-c]pyridin-1(2H)-yl)(1-methyl-1H-indazol-3-yl)methanone]	–	> 100	–
O=C(c1cc2ccccc2o1)N1C2CC3CCN(C2)CC31 (centres unmarked) [Example 5, Benzofuran-2-yl(hexahydro-2,6-methanopyrrolo[2,3-c]pyridin-1(2H)-yl)methanone]	–	> 100	–
O=C(c1cc(C2CC2)[nH]n1)N1[C@H]2C[C@@H]3CC[N@](C2)C[C@@H]31 [Example 20, ((2S,3aS,6R,7aR)-hexahydro-2,6-methanopyrrolo[2,3-c]pyridin-1(2H)-yl)(5-cyclopropyl-1H-pyrazol-3-yl)methanone]	–	–	EC50 (Table 2): 26 µM
COc1ccc2[nH]nc(C(=O)N3C4CC5CCN(C4)CC53)c2c1 (centres unmarked) [Example 10, (5-methoxy-1H-indazol-3-yl)(hexahydro-2,6-methanopyrrolo[2,3-c]pyridin-1(2H)-yl)methanone]	–	> 100	–
O=C(c1n[nH]c2ncccc12)N1[C@@H]2C[C@H]3CC[N@@](C2)C[C@H]31 [Example 31, ((2R,3aR,6S,7aS)-hexahydro-2,6-methanopyrrolo[2,3-c]pyridin-1(2H)-yl)(1H-pyrazolo[3,4-b]pyridin-3-yl)methanone]	9.2	–	–
O=C(c1cc2ccccc2s1)N1C2CC3CCN(C2)CC31 (centres unmarked) [Example 6, Benzo[b]thiophen-2-yl(hexahydro-2,6-methanopyrrolo[2,3-c]pyridin-1(2H)-yl)methanone]	–	51	–
O=C(c1n[nH]c2cc(F)ccc12)N1[C@H]2C[C@@H]3CC[N@](C2)C[C@@H]31 [Example 21, (6-fluoro-1H-indazol-3-yl)((2S,3aS,6R,7aR)-hexahydro-2,6-methanopyrrolo[2,3-c]pyridin-1(2H)-yl)methanone]	–	–	EC50 (Table 2): 0.08 µM

Second part, led by results:

EC50 (Table 3) [µM]	EC50 (Table 1) [µM]	SMILES	further results
0.19	–	Cc1ccc2c(C(=O)N3[C@@H]4C[C@H]5CC[N@@](C4)C[C@H]53)n[nH]c2c1 [Example 30, (6-methyl-1H-indazol-3-yl)((2R,3aR,6S,7aS)-hexahydro-2,6-methanopyrrolo[2,3-c]pyridin-1(2H)-yl)methanone]	–
0.43	–	O=C(c1n[nH]c2cc(F)ccc12)N1[C@@H]2C[C@H]3CC[N@@](C2)C[C@H]31 [Example 26, (6-fluoro-1H-indazol-3-yl)((2R,3aR,6S,7aS)-hexahydro-2,6-methanopyrrolo[2,3-c]pyridin-1(2H)-yl)methanone]	–
> 100	–	O=C(c1cc(-c2ccccc2)[nH]n1)N1[C@@H]2C[C@H]3CC[N@@](C2)C[C@H]31 [Example 32, ((2R,3aR,6S,7aS)-hexahydro-2,6-methanopyrrolo[2,3-c]pyridin-1(2H)-yl)(5-phenyl-1H-pyrazol-3-yl)methanone]	–
36	–	O=C(c1n[nH]c2c(Cl)cccc12)N1[C@@H]2C[C@H]3CC[N@@](C2)C[C@H]31 [Example 28, (7-chloro-1H-indazol-3-yl)((2R,3aR,6S,7aS)-hexahydro-2,6-methanopyrrolo[2,3-c]pyridin-1(2H)-yl)methanone]	–
> 100	–	O=C(c1cc(C2CC2)[nH]n1)N1[C@@H]2C[C@H]3CC[N@@](C2)C[C@H]31 [Example 27, ((2R,3aR,6S,7aS)-hexahydro-2,6-methanopyrrolo[2,3-c]pyridin-1(2H)-yl)(5-cyclopropyl-1H-pyrazol-3-yl)methanone]	–
0.15	–	O=C(c1n[nH]c2ccccc12)N1[C@@H]2C[C@H]3CC[N@@](C2)C[C@H]31 [Example 33, ((2R,3aR,6S,7aS)-hexahydro-2,6-methanopyrrolo[2,3-c]pyridin-1(2H)-yl)(1H-indazol-3-yl)methanone]	–
